Measurements as given in patent publication US9963456B2, “Pyrrolopyrimidine compound or salt thereof and compositions containing the pyrrolopyrimidine compound or salt thereof” (TAIHO PHARMACEUTICAL CO., LTD., priority 2014, dated 2018).

Target: NAE (heterodimer of APPBP1 and UBA3) (Homo sapiens (Human), UniProt Q8TBC4)
Assay: Nedd8 conjugation inhibitory activity (AlphaScreen assay)
Format: biochemical
Conditions: purified NAE, GST-UBC12, Biotin-Nedd8, ATP

Chain of NAE (heterodimer of APPBP1 and UBA3) (Q8TBC4 whole entry): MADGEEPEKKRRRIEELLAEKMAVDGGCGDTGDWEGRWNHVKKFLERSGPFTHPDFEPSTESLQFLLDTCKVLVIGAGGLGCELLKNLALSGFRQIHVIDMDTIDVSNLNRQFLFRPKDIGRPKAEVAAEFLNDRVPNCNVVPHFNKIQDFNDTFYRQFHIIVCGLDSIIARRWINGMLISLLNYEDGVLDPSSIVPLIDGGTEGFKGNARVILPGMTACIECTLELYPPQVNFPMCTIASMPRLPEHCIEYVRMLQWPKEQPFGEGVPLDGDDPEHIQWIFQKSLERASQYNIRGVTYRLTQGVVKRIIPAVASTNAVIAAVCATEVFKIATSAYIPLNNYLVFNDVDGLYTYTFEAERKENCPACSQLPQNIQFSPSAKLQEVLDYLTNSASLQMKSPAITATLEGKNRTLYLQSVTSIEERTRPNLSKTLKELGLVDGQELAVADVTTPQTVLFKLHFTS
Chain of NAE (heterodimer of APPBP1 and UBA3) (Q13564 whole entry partner): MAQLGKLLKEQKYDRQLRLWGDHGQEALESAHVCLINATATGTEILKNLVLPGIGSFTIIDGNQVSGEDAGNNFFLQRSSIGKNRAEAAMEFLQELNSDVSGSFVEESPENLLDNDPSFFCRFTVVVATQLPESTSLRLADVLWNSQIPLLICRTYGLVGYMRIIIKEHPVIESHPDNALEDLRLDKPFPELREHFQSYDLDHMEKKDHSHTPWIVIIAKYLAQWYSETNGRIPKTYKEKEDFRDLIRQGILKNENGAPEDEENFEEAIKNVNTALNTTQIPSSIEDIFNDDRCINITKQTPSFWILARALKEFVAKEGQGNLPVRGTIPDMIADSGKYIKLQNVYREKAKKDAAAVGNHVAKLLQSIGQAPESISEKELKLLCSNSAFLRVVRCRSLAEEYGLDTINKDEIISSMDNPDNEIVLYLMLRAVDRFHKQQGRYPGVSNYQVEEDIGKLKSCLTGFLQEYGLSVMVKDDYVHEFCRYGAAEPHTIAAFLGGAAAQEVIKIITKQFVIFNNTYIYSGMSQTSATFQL

| Structure (SMILES) | IC50 |
| --- | --- |
| Nc1ncnc2c1c(C#Cc1c(F)cc(OCn3nccn3)cc1F)cn2[C@@H]1O[C@H](CNS(N)(=O)=O)[C@@H](O)[C@H]1O [Example 67, 4-Amino-5-[2-[2,6-difluoro-4-(triazol-2-ylmethoxy)phenyl]ethynyl]-7-[(2R,3R,4S,5R)-3,4-dihydroxy-5-[(sulfamoylamino)methyl]tetrahydrofuran-2-yl]pyrrolo[2,3-d]pyrimidine] | 0.0085 µM |
| Nc1ncnc2c1c(C#Cc1c(F)ccnc1F)cn2[C@@H]1O[C@H](CNS(N)(=O)=O)[C@@H](O)[C@H]1O [Example 69, 4-Amino-5-[2-(2,4-difluoro-3-pyridyl)ethynyl]-7-[(2R,3R,4S,5R)-3,4-dihydroxy-5-[(sulfamoylamino)methyl]tetrahydrofuran-2-yl]pyrrolo[2,3-d]pyrimidine] | 0.015 µM |
| CCS(=O)(=O)c1cc(N2CCCC2)cc(F)c1C#Cc1cn([C@@H]2O[C@H](CNS(N)(=O)=O)[C@@H](O)[C@H]2O)c2ncnc(N)c12 [Example 70, 4-Amino-7-[(2R,3R,4S,5R)-3,4-dihydroxy-5-[(sulfamoylamino)methyl]tetrahydrofuran-2-yl]-5-[2-(2-ethylsulfonyl-6-fluoro-4-pyrrolidin-1-yl-phenyl)ethynyl]pyrrolo[2,3-d]pyrimidine] | 0.013 µM |
| COc1cncc(F)c1C#Cc1cn([C@@H]2O[C@H](CNS(N)(=O)=O)[C@@H](O)[C@H]2O)c2ncnc(N)c12 [Example 71, 4-Amino-7-[(2R,3R,4S,5R)-3,4-dihydroxy-5-[(sulfamoylamino)methyl]tetrahydrofuran-2-yl]-5-[2-(3-fluoro-5-methoxy-4-pyridyl)ethynyl]pyrrolo[2,3-d]pyrimidine] | 0.014 µM |
| CCS(=O)(=O)c1cc(N2CC[C@@H](O)C2)cc(F)c1C#Cc1cn([C@@H]2O[C@H](CNS(N)(=O)=O)[C@@H](O)[C@H]2O)c2ncnc(N)c12 [Example 72, 4-Amino-7-[(2R,3R,4S,5R)-3,4-dihydroxy-5-[(sulfamoylamino)methyl]tetrahydrofuran-2-yl]-5-[2-[2-ethylsulfonyl-6-fluoro-4-[(3R)-3-hydroxypyrrolidin-1-yl]phenyl]ethynyl]pyrrolo[2,3-d]pyrimidine] | 0.0044 µM |
| Nc1ncnc2c1c(C#Cc1ncc(OCc3ccccc3)cn1)cn2[C@@H]1O[C@H](CNS(N)(=O)=O)[C@@H](O)[C@H]1O [Example 76, 4-Amino-5-[2-(5-benzyloxypyrimidin-2-yl)ethynyl]-7-[(2R,3R,4S,5R)-3,4-dihydroxy-5-[(sulfamoylamino)methyl]tetrahydrofuran-2-yl]pyrrolo[2,3-d]pyrimidine] | 0.0051 µM |
| NC(=O)c1cccc(F)c1C#Cc1cn([C@@H]2O[C@H](CNS(N)(=O)=O)[C@@H](O)[C@H]2O)c2ncnc(N)c12 [Example 79, 2-[2-[4-Amino-7-[(2R,3R,4S,5R)-3,4-dihydroxy-5-[(sulfamoylamino)methyl]tetrahydrofuran-2-yl]pyrrolo[2,3-d]pyrimidin-5-yl]ethynyl]-3-fluorobenzamide] | 0.0032 µM |
| COc1ncc(F)c(C#Cc2cn([C@@H]3O[C@H](CNS(N)(=O)=O)[C@@H](O)[C@H]3O)c3ncnc(N)c23)c1F [Example 80, 4-Amino-5-[2-(3,5-difluoro-2-methoxy-4-pyridyl)ethynyl]-7-[(2R,3R,4S,5R)-3,4-dihydroxy-5-[(sulfamoylamino)methyl]tetrahydrofuran-2-yl]pyrrolo[2,3-d]pyrimidine] | 0.014 µM |
| COc1cnc(OC)c(F)c1C#Cc1cn([C@@H]2O[C@H](CNS(N)(=O)=O)[C@@H](O)[C@H]2O)c2ncnc(N)c12 [Example 81, 4-Amino-7-[(2R,3R,4S,5R)-3,4-dihydroxy-5-[(sulfamoylamino)methyl]tetrahydrofuran-2-yl]-5-[2-(3-fluoro-2,5-dimethoxy-4-pyridyl)ethynyl]pyrrolo[2,3-d]pyrimidine] | 0.0056 µM |
| CCSc1ccccc1C#Cc1cn([C@@H]2O[C@H](CNS(N)(=O)=O)[C@@H](O)[C@H]2O)c2ncnc(N)c12 [Example 82, 4-Amino-7-[(2R,3R,4S,5R)-3,4-dihydroxy-5-[(sulfamoylamino)methyl]tetrahydrofuran-2-yl]-5-[2-(2-ethylsulfanylphenyl)ethynyl]pyrrolo[2,3-d]pyrimidine] | 0.01 µM |
| Nc1ncnc2c1c(C#Cc1cccc3c1S(=O)(=O)CCC3)cn2[C@@H]1O[C@H](CNS(N)(=O)=O)[C@@H](O)[C@H]1O [Example 83, 4-Amino-7-[(2R,3R,4S,5R)-3,4-dihydroxy-5-[(sulfamoylamino)methyl]tetrahydrofuran-2-yl]-5-[2-(1,1-dioxo-3,4-dihydro-2H-thiochromen-8-yl)ethynyl]pyrrolo[2,3-d]pyrimidine] | 0.019 µM |
| Nc1ncnc2c1c(C#Cc1c(F)cccc1S(N)(=O)=O)cn2[C@@H]1O[C@H](CNS(N)(=O)=O)[C@@H](O)[C@H]1O [Example 84, 2-[2-[4-Amino-7-[(2R,3R,4S,5R)-3,4-dihydroxy-5-[(sulfamoylamino)methyl]tetrahydrofuran-2-yl]pyrrolo[2,3-d]pyrimidin-5-yl]ethynyl]-3-fluoro-benzenesulfonamide] | 0.0097 µM |
| Nc1ncnc2c1c(C#Cc1c(F)cccc1OCC1CC1)cn2[C@@H]1O[C@H](CNS(N)(=O)=O)[C@@H](O)[C@H]1O [Example 86, 4-Amino-5-[2-[2-(cyclopropylmethoxy)-6-fluoro-phenyl]ethynyl]-7-[(2R,3R,4S,5R)-3,4-dihydroxy-5-[(sulfamoylamino)methyl]tetrahydrofuran-2-yl]pyrrolo[2,3-d]pyrimidine] | 0.0054 µM |
| Nc1ncnc2c1c(C#Cc1ncccc1F)cn2[C@@H]1O[C@H](CNS(N)(=O)=O)[C@@H](O)[C@H]1O [Example 88, 4-Amino-7-[(2R,3R,4S,5R)-3,4-dihydroxy-5-[(sulfamoylamino)methyl]tetrahydrofuran-2-yl]-5-[2-(3-fluoro-2-pyridyl)ethynyl]pyrrolo[2,3-d]pyrimidine] | 0.018 µM |
| CSc1ccccc1C#Cc1cn([C@@H]2O[C@H](CNS(N)(=O)=O)[C@@H](O)[C@H]2O)c2ncnc(N)c12 [Example 89, 4-Amino-7-[(2R,3R,4S,5R)-3,4-dihydroxy-5-[(sulfamoylamino)methyl]tetrahydrofuran-2-yl]-5-[2-(2-methylsulfanylphenyl)ethynyl]pyrrolo[2,3-d]pyrimidine] | 0.011 µM |
| Nc1ncnc2c1c(C#Cc1ccccc1S(N)(=O)=O)cn2[C@@H]1O[C@H](CNS(N)(=O)=O)[C@@H](O)[C@H]1O [Example 90, 2-[2-[4-Amino-7-[(2R,3R,4S,5R)-3,4-dihydroxy-5-[(sulfamoylamino)methyl]tetrahydrofuran-2-yl]pyrrolo[2,3-d]pyrimidin-5-yl]ethynyl]benzenesulfonamide] | 0.0056 µM |
| NC(=O)c1cccc(COc2ccc(C#Cc3cn([C@@H]4O[C@H](CNS(N)(=O)=O)[C@@H](O)[C@H]4O)c4ncnc(N)c34)cc2)c1 [Example 91, 3-[[4-[2-[4-Amino-7-[(2R,3R,4S,5R)-3,4-dihydroxy-5-[(sulfamoylamino)methyl]tetrahydrofuran-2-yl]pyrrolo[2,3-d]pyrimidin-5-yl]ethynyl]phenoxy]methyl]benzamide] | 0.018 µM |
| COc1cccc(OC)c1C#Cc1cn([C@@H]2C[C@H](CNS(N)(=O)=O)[C@@H](O)[C@H]2O)c2ncnc(N)c12 [Example 94, 4-Amino-7-[(1R,2S,3R,4R)-2,3-dihydroxy-4-[(sulfamoylamino)methyl]cyclopentyl]-5-[2-(2,6-dimethoxyphenyl)ethynyl]pyrrolo[2,3-d]pyrimidine] | 0.021 µM |
